How the values were obtained:
Type in all cases: biochemical
hCA-IX [1] = molecular target: T1, hCA-IX (Homo sapiens, UniProt Q16790); assay: biochemical
hCA-II [2] = molecular target: T2, hCA-II (Homo sapiens, UniProt P00918); assay: Enzyme kinetics; conditions: CA-II; substrate 0-900 µM; inhibitor 0, 0.2, 0.4, 0.6 µM
hCA-XII [3] = molecular target: T3, hCA-XII (Homo sapiens, UniProt O43570); assay: Carbonic anhydrase inhibition assay
hCA-II [4] = molecular target: T2, hCA-II; assay: Carbonic anhydrase inhibition assay
hCA-XII [5] = molecular target: T3, hCA-XII; assay: Enzyme kinetics; conditions: CA-XII; substrate 0-900 µM; inhibitor 0, 0.4, 0.6, 0.8 µM
hCA-IX [6] = molecular target: T1, hCA-IX; assay: Enzyme kinetics; conditions: CA-IX; substrate 0-900 µM; inhibitor 0, 0.1, 0.2, 0.3 µM

T3 sequence (O43570 25-354): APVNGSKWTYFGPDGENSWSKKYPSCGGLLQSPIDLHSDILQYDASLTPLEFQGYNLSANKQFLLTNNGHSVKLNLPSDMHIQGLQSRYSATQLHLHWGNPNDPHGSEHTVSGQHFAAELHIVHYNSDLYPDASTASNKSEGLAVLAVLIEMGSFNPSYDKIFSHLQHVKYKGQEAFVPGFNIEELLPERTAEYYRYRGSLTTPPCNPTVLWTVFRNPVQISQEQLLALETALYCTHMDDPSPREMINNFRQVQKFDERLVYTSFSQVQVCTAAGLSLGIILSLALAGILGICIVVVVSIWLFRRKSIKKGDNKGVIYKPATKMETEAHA

SMILES	IC50 (hCA-IX [1]) [µM]	inhibition of hCA-XII in words (hCA-XII [3])	IC50 (hCA-XII [3]) [µM]	IC50 (hCA-II [4]) [µM]	other results
Cc1cc(C)cc(Nc2ccc(-c3ccc(S(N)(=O)=O)cc3)cc2)c1 [Compound 9c, 4’-((3,5-dimethylphenyl)amino)-[1,1’-biphenyl]−4-sulfonamide]	–	inactive	–	–	inhibition of hCA-IX in words (hCA-IX [1]): inactive; inhibition of hCA-II in words (hCA-II [4]): inactive
COC(=O)c1ccc(Nc2ccc(-c3ccc(S(N)(=O)=O)cc3)cc2)cc1 [Compound 9b, Methyl 4-((4’-sulfamoyl-[1,1’-biphenyl]−4-yl)amino)benzoate]	1.46 ± 0.08	–	0.69 ± 0.15	1.03 ± 0.1	Mode of Enzyme Inhibition (hCA-XII [5]): Competitive

Continued, in another order:

IC50 (hCA-IX [1]) [µM]	inhibition of hCA-XII in words (hCA-XII [3])	IC50 (hCA-XII [3]) [µM]	IC50 (hCA-II [4]) [µM]	SMILES	other results
3.43 ± 0.15	moderate inhibition	–	–	NS(=O)(=O)c1ccc(-c2ccc(Nc3ccc(F)c(Cl)c3)cc2)cc1 [Compound 9e, 4’-((3-chloro-4-fluorophenyl)amino)-[1,1’-biphenyl]−4-sulfonamide]	Mode of Enzyme Inhibition (hCA-II [2]): Competitive
2.79 ± 0.02	–	1.05 ± 0.1	–	NS(=O)(=O)c1ccc(-c2ccc(Nc3ccc(Cl)cc3)cc2)cc1 [Compound 9a, 4’-((4-chlorophenyl)amino)-[1,1’-biphenyl]−4-sulfonamide]	–
–	–	–	1.01 ± 0.1	NS(=O)(=O)c1ccc(-c2ccc(Nc3ccncc3)cc2)cc1 [Compound 9d, 4’-(pyridin-4-ylamino)-[1,1’-biphenyl]−4-sulfonamide]	Mode of Enzyme Inhibition (hCA-IX [6]): Uncompetitive; inhibitor potential as compared to standard inhibitor acetazolamide (hCA-IX [1]; hCA-IX): 8 fold

Reference: PMC12264121 (Scientific Reports, 2025)
